Measurements as given in ChEMBL document CHEMBL3286092, “Discovery of 1-arylpyrrolidone derivatives as potent p53-MDM2 inhibitors based on molecule fusing strategy” (Bioorg Med Chem Lett, 2014).

Legend:
[1] = target: E3 ubiquitin-protein ligase Mdm2 (Homo sapiens, UniProt Q00987); test: Binding affinity to MDM2 (unknown origin) assessed as inhibition of interaction with p53 after 1 hr by fluorescence polarization binding assay
A549 = test: Induction of p53 level in human A549 cells after 4 hrs by Western blotting analysis; type: functional, cell-based

E3 ubiquitin-protein ligase Mdm2, sequence (Q00987 whole entry): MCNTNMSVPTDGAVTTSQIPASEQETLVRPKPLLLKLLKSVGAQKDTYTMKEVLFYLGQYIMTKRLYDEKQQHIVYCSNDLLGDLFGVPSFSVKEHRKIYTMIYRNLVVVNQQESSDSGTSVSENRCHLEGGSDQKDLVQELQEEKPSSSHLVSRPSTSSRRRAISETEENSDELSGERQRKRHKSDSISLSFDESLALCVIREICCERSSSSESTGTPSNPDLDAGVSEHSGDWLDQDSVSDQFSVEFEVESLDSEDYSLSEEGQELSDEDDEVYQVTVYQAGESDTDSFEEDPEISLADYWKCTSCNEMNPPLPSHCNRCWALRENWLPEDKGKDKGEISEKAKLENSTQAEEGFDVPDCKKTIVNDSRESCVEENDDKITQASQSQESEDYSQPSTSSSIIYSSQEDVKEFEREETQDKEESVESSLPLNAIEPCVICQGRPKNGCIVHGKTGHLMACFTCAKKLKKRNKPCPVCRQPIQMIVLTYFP

Ki [1] [µM] | Structure (SMILES) | Activity (A549)
> 100 | C[C@@H](NC1=C(C(=O)c2ccccc2)C(c2ccc(Br)cc2)N(Cc2ccc(C(F)(F)F)cc2F)C1=O)c1ccccc1 (stereo not given in full) | –
> 100 | CC(C)OC1=C(C(=O)c2ccccc2)C(c2ccc(Br)cc2)N(Cc2ccc(C(F)(F)F)cc2OC(C)C)C1=O (stereo not given) | –
> 100 | COc1cc(C(F)(F)F)ccc1CN1C(=O)C(N[C@H](C)c2ccccc2)=C(C(=O)c2ccccc2)C1c1ccc(Br)cc1 (stereo not given in full) | –
– | CC(C)Oc1cc(C(F)(F)F)ccc1CN1C(=O)C(N[C@H](C)c2ccccc2)=C(C(=O)c2ccccc2)C1c1ccc(Br)cc1 (stereo not given in full) | Dose-dependent effect
> 100 | CC(C)OC1=C(C(=O)c2ccccc2)C(c2ccc(Br)cc2)N(Cc2ccc(C(F)(F)F)cc2F)C1=O (stereo not given) | –
